In brackets after ≈: the same amount, converted by molar mass.
Assays:
[1] = test system: Trypanosoma cruzi; assay: Antiprotozoal activity against Trypanosoma cruzi Tulahuen C4 in rat L6 cells; format: functional, organism-based
[2] = test system: Leishmania donovani; assay: Antiprotozoal activity against Leishmania donovani MHOM-ET-67/L82 in mouse peritoneal macrophages; format: functional, organism-based
[3] = test system: L6; assay: Cytotoxicity against rat L6 cells; format: cell-based
[4] = test system: Trypanosoma brucei rhodesiense; assay: Antiprotozoal activity against Trypanosoma brucei rhodesiense STIB900; format: functional, organism-based
[5] = test system: Plasmodium falciparum; assay: Antimalarial activity against Plasmodium falciparum K1 in human erythrocytes by [3H]hypoxanthine uptake; format: functional, organism-based

Row | Compound | IC50 [1] [µg/mL] | IC50 [2] [µg/mL] | IC50 [3] [µg/mL] | IC50 [4] [µg/mL] | IC50 [5] [µg/mL]
1 | O=C(Cn1ccnc1[N+](=O)[O-])NCc1ccccc1 [BENZNIDAZOLE] | 0.317 (≈ 1.22 µM) | – | – | – | –
2 | COc1cccc2oc3cc4c(c(O)c3c(=O)c12)[C@@H]1C[C@@H](O)C[C@](C)(O4)O1 [CHAETOXANTHONE A] | > 10 | 5.3 (≈ 14.3 µM) | 59.1 (≈ 160 µM) | 4.7 (≈ 12.7 µM) | 3.5 (≈ 9.45 µM)
3 | COc1cccc2oc3cc4c(c(O)c3c(=O)c12)C1CCCC(C)(O4)O1 (stereo unspecified) [CHAETOXANTHONE B] | 7.1 (≈ 20 µM) | 3.4 (≈ 9.59 µM) | > 90 | 9.3 (≈ 26.2 µM) | 0.5 (≈ 1.41 µM)
4 | COc1cccc2oc3c(Cl)c(O)c([C@H]4CCC[C@@H](C)O4)c(O)c3c(=O)c12 [CHAETOXANTHONE C] | 1.5 (≈ 3.84 µM) | 3.1 (≈ 7.93 µM) | 46.7 (≈ 119 µM) | 42.6 (≈ 109 µM) | 4 (≈ 10.2 µM)

From ChEMBL document CHEMBL1156639, “Antiprotozoal activities of heterocyclic-substituted xanthones from the marine-derived fungus Chaetomium sp” (J Nat Prod, 2008)
